Data: patent US10781236B2, “Bacteriocin composition and method” (priority 2015, dated 2020)

Assays:
[1] = test system: Leuconostoc gelidium LMGT 2386; assay: Relative MIC, inhibitory spectrum; assay type: cell-based; details: relative to L. lactis IL 1403 = 1
[2] = test system: Pediococcus acidilactici LMGT 2002; assay: Relative MIC, inhibitory spectrum; assay type: cell-based; details: relative to L. lactis IL 1403 = 1
E. faecium LMGT 2772 = assay: Relative MIC, inhibitory spectrum; assay type: cell-based, Enterococcus faecium; details: relative to L. lactis IL 1403 = 1
L. ivanovii LMGT 2813 = assay: Relative MIC, inhibitory spectrum; assay type: cell-based, Listeria ivanovii; details: relative to L. lactis IL 1403 = 1
L. lactis IL1403 = assay: Relative MIC, inhibitory spectrum; assay type: cell-based, Lactococcus lactis; details: the reference indicator, referred to as 1
E. faecium LMGT 2876 = assay: Relative MIC, inhibitory spectrum; assay type: cell-based, Enterococcus faecium; details: relative to L. lactis IL 1403 = 1
P. pentosaceus LMGT 2366 = assay: Relative MIC, inhibitory spectrum; assay type: cell-based, Pediococcus pentosaceus; details: relative to L. lactis IL 1403 = 1
L. lactis LMGT 2081 = assay: Relative MIC, inhibitory spectrum; assay type: cell-based, Lactococcus lactis; details: relative to L. lactis IL 1403 = 1
S. aureus LMGT 3265 = assay: Relative MIC, inhibitory spectrum; assay type: cell-based, Staphylococcus aureus; details: relative to L. lactis IL 1403 = 1
L. innocua = assay: Antimicrobial activity against problematic bacteria; assay type: cell-based, Listeria innocua; details: food sources
Procedure: (§1) To screen for bacteriocin producers with broad inhibition spectra (BIS), Lactococcus lactis, Lactobacillus sakei, Lactobacillus plantarum, Listeria innocua, and Staphylococcus aureus from the food and dairy environment were used as indicators in the first round of screening. The antimicrobial screening was performed using the agar diffusion bioassay as previously described (Holo et al., 1991, J. Bacteriol., 173, p 3879-3887). Briefly, indicator cells from overnight cultures were diluted 100-fold in 5 mL of BHI soft agar and plated out as a lawn on BHI agar plates. Potential bacteriocin producers at volumes of 3 μL were spotted on the indicator lawn and then incubated at appropriate temperatures for 24 h for cell growth and cell inhibition. Inhibition was detected as clear zones around the spotted cells.
(§2) As the antimicrobial activity of garvicin KS is relatively broad, we explored further its potential to kill a larger panel of important pathogens. The list contained 147 problematic or potentially problematic bacteria of species belonging to Listeria, Staphylococcus, Streptococcus and Enterococcus, isolated from food and clinical sources. In this assay, we compared the antimicrobial activity of garvicin KS with that of garvicin ML and nisin, the last one being known as a broad inhibition-spectrum bacteriocin (AIKhatib et al., 2014, PLOS One 9:e102246 doi:10.1371/joumal.pone.0102246). […]

[3] = test system: 53 strains of different genera in the Firmicutes family; assay: Inhibitory spectrum, whole panel of Table 3; assay type: cell-based; details: 53 strains of Table 3
Source text: A more extended comparison between the bacteriocin activity of L. garvieae KS 1546 (termed garvicin KS) and L. garvieae DCC 43 (garvicin ML producer) can also be seen in Table 3.

Strep. Thermophylus = assay: Antimicrobial activity against problematic bacteria; assay type: cell-based, Streptococcus thermophylus; details: food sources
Procedure: as §1, §2

E. faecalis = assay: as above; assay type: cell-based, Enterococcus faecalis
Procedure: as §1, §2

S. pneumonia = assay: as above; assay type: cell-based, Streptococcus pneumonia
Procedure: as §1, §2

[4] = test system: Enterococcus avium LMGT 3465; assay: Relative MIC, inhibitory spectrum; assay type: cell-based; details: relative to L. lactis IL 1403 = 1
S. agalactia = assay: Antimicrobial activity against problematic bacteria; assay type: cell-based, Streptococcus agalactia; details: clinical sources
Procedure: as §1, §2

L. plantarum LMGT 2379 = assay: Relative MIC, inhibitory spectrum; assay type: cell-based, Lactobacillus plantarum; details: relative to L. lactis IL 1403 = 1
L. seelingeri = assay: Antimicrobial activity against problematic bacteria; assay type: cell-based, Listeria seelingeri; details: food sources
Procedure: as §1, §2

L. curvatus LMGT 2715 = assay: Relative MIC, inhibitory spectrum; assay type: cell-based, Lactobacillus curvatus; details: relative to L. lactis IL 1403 = 1
L. lactis LMGT 2130 = assay: Relative MIC, inhibitory spectrum; assay type: cell-based, Lactococcus lactis; details: relative to L. lactis IL 1403 = 1
L. grayi = assay: Antimicrobial activity against problematic bacteria; assay type: cell-based, Listeria grayi; details: food sources
Procedure: as §1, §2

[5] = test system: Lactobacillus curvatus LMGT 2353; assay: Relative MIC, inhibitory spectrum; assay type: cell-based; details: relative to L. lactis IL 1403 = 1
S. salivarius = assay: Antimicrobial activity against problematic bacteria; assay type: cell-based, Streptococcus salivarius; details: clinical sources
Procedure: as §1, §2

E. faecalis LMGT 2333 = assay: Relative MIC, inhibitory spectrum; assay type: cell-based, Enterococcus faecalis; details: relative to L. lactis IL 1403 = 1
L. curvatus LMGT 2355 = assay: Relative MIC, inhibitory spectrum; assay type: cell-based, Lactobacillus curvatus; details: relative to L. lactis IL 1403 = 1
Staph. Aureus = assay: Antimicrobial activity against problematic bacteria; assay type: cell-based, Staphylococcus aureus
Procedure: as §1, §2

E. faecium LMGT 2763 = assay: Relative MIC, inhibitory spectrum; assay type: cell-based, Enterococcus faecium; details: relative to L. lactis IL 1403 = 1
L. plantarum LMGT 2003 = assay: Relative MIC, inhibitory spectrum; assay type: cell-based, Lactobacillus plantarum; details: relative to L. lactis IL 1403 = 1
[6] = test system: C. tyrobutyricum LMGT 2524; assay: Relative MIC, inhibitory spectrum; assay type: cell-based, Clostridium tyrobutyricum; details: relative to L. lactis IL 1403 = 1
[7] = test system: Listeria innocua LMGT 2710; assay: Relative MIC, inhibitory spectrum; assay type: cell-based; details: relative to L. lactis IL 1403 = 1
P. pentosaceus LMGT 2001 = assay: Relative MIC, inhibitory spectrum; assay type: cell-based, Pediococcus pentosaceus; details: relative to L. lactis IL 1403 = 1
L. lactis LMGT 3419 = assay: Relative MIC, inhibitory spectrum; assay type: cell-based, Lactococcus lactis; details: relative to L. lactis IL 1403 = 1
[8] = test system: 147 problematic or potentially problematic bacteria of Listeria, Staphylococcus, Streptococcus and Enterococcus; assay: Antimicrobial activity against problematic bacteria, whole panel; assay type: cell-based; details: for number of sensitive strains / number of strains tested: Total
Procedure: as §1
As the antimicrobial activity of garvicin KS is relatively broad, we explored further its potential to kill a larger panel of important pathogens. The list contained 147 problematic or potentially problematic bacteria of species belonging to Listeria, Staphylococcus, Streptococcus and Enterococcus, isolated from food and clinical sources. In this assay, we compared the antimicrobial activity of garvicin KS with that of garvicin ML and nisin, the last one being known as a broad inhibition-spectrum bacteriocin (AIKhatib et al., 2014, PLOS One 9:e102246 doi:10.1371/joumal.pone.0102246). […] In all cases, garvicin KS was either equal or better than nisin, regardless of whether the isolates were from clinical or food environments, except for the activity toward clinical isolates of S. aureus where nisin appeared marginally better (24/25 for nisin and 23/25 for KS).

[9] = test system: Staphylococcus aureus LMGT 3022; assay: Relative MIC, inhibitory spectrum; assay type: cell-based; details: relative to L. lactis IL 1403 = 1

garvicin ML
Relative MIC value [1]: 32-64 | Relative MIC value [2]: 32 | Relative MIC value (E. faecium LMGT 2772): 32 | Relative MIC value (L. ivanovii LMGT 2813): 32 | Relative MIC value (L. lactis IL1403): 1 | Relative MIC value (E. faecium LMGT 2876): 64-128 | Relative MIC value (P. pentosaceus LMGT 2366): 64 | Relative MIC value (L. lactis LMGT 2081): ≤0.25 | Relative MIC value (S. aureus LMGT 3265): ≥512 | number of sensitive strains / number of strains tested (L. innocua): 1/6 | number of sensitive strains (n) among 53 strains [3]: 39 | sensitive portion of 53 strains [3]: about 74% | number of sensitive strains / number of strains tested (Strep. Thermophylus): 8/8 | number of sensitive strains / number of strains tested (E. faecalis; clinical sources): 0/2 | number of sensitive strains / number of strains tested (E. faecalis; food sources): 18/40 | number of sensitive strains / number of strains tested (S. pneumonia; clinical sources): 1/1 | number of sensitive strains / number of strains tested (S. pneumonia; food sources): 1/1 | Relative MIC value [4]: ≤0.25 | number of sensitive strains / number of strains tested (S. agalactia): 1/1 | Relative MIC value (L. plantarum LMGT 2379): 32 | number of sensitive strains / number of strains tested (L. seelingeri): 0/1 | Relative MIC value (L. curvatus LMGT 2715): 32 | Relative MIC value (L. lactis LMGT 2130): 8 | number of sensitive strains / number of strains tested (L. grayi): 0/2 | Relative MIC value [5]: 16 | number of sensitive strains / number of strains tested (S. salivarius): 1/1 | Relative MIC value (E. faecalis LMGT 2333): 64-128 | Relative MIC value (L. curvatus LMGT 2355): 2-4 | number of sensitive strains / number of strains tested (Staph. Aureus; clinical sources): 9/25 | number of sensitive strains / number of strains tested (Staph. Aureus; food sources): 4/28 | Relative MIC value (E. faecium LMGT 2763): 32-64 | Relative MIC value (L. plantarum LMGT 2003): 64 | Relative MIC value [6]: 32-64 | Relative MIC value [7]: 32 | Relative MIC value (P. pentosaceus LMGT 2001): 16-32 | Relative MIC value (L. lactis LMGT 3419): ≤0.25 | portion of the 147 strains killed ([8]; 147 strains, clinical and food): 34.6% | strains killed among the 147 strains tested ([8]; 147 strains, clinical and food): 51 strains | number of sensitive strains / number of strains tested ([8]; clinical sources): 12/34 | number of sensitive strains / number of strains tested ([8]; food sources): 39/113 | Relative MIC value [9]: 512
